The target in the assay is Complement C3 (Homo sapiens, UniProt P01024). Nature of the assay: Inhibitory concentration for human complement component C3 activation.
Complement C3, sequence (P01024 23-667 limits assumed): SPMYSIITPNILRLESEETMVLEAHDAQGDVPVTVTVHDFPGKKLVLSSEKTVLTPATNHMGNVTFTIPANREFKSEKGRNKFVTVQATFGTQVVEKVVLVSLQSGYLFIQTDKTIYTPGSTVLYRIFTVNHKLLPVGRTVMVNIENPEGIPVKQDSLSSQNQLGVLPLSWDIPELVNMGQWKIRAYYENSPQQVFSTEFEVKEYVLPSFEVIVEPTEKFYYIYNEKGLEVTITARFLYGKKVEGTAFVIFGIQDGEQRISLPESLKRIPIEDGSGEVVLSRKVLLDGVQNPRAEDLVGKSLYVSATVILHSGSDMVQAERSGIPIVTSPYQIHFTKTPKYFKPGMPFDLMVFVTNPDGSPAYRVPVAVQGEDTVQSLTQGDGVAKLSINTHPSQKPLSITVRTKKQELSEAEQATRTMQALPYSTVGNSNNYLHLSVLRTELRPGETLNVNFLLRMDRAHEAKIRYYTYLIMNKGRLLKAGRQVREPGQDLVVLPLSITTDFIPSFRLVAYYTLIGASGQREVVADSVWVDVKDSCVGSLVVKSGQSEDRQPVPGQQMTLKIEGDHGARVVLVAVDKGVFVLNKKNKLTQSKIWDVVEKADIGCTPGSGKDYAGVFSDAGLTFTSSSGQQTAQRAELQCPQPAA
Complement C3, sequence (P01024 672-1663 limits assumed): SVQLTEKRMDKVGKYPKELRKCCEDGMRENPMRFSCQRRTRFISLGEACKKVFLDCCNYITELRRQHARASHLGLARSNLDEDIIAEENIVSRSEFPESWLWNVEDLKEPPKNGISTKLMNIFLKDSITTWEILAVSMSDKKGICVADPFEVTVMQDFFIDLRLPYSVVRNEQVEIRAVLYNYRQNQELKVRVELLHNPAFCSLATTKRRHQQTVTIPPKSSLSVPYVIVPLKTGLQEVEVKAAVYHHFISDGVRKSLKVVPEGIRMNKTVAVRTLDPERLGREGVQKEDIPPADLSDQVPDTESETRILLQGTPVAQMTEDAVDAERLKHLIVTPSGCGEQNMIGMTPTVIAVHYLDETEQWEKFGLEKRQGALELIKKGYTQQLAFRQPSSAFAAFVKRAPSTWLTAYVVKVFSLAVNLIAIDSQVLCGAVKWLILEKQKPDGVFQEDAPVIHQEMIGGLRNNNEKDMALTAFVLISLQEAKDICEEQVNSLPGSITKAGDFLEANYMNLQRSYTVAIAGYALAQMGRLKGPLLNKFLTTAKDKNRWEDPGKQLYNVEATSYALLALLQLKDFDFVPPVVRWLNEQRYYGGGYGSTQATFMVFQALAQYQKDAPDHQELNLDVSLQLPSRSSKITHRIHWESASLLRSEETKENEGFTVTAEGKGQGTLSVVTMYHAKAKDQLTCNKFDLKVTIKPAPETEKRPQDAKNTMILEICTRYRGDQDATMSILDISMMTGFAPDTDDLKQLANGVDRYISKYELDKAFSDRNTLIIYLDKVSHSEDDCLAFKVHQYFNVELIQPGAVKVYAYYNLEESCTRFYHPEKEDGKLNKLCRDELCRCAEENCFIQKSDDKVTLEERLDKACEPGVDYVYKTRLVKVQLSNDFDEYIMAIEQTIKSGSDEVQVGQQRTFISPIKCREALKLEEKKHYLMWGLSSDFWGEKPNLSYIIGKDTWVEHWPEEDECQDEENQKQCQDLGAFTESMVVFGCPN
`CC[C@H](C)[C@H](NC(C)=O)C(=O)N[C@H]1CSSC[C@@H](C(=O)N[C@H](C(N)=O)[C@@H](C)O)NC(=O)[C@H](CCCN=C(N)N)NC(=O)[C@H](Cc2c[nH]cn2)NC(=O)[C@H](Cc2c[nH]cn2)NC(=O)CNC(=O)[C@H](Cc2c[nH]c3ccccc23)NC(=O)[C@H](CC(=O)O)NC(=O)[C@H](CCC(N)=O)NC(=O)[C@H](Cc2ccccc2)NC(=O)[C@H](C(C)C)NC1=O` returned an IC50 of 10.2 µM. Next, `CC[C@H](C)[C@H](NC(C)=O)C(=O)N[C@H]1CSSC[C@@H](C(=O)N[C@H](C(N)=O)[C@@H](C)O)NC(=O)[C@H](CCCN=C(N)N)NC(=O)[C@H](Cc2c[nH]cn2)NC(=O)[C@H](C)NC(=O)CNC(=O)[C@H](Cc2c[nH]c3ccccc23)NC(=O)[C@H](CC(=O)O)NC(=O)[C@H](CCC(N)=O)NC(=O)[C@H](Cc2ccc(O)cc2)NC(=O)[C@H](C(C)C)NC1=O`: 3.8 µM; `CC[C@H](C)[C@H](NC(C)=O)C(=O)N[C@H]1CSSC[C@@H](C(=O)N[C@H](C(N)=O)[C@@H](C)O)NC(=O)[C@H](CCCNC(=N)N)NC(=O)[C@H](Cc2cnc[nH]2)NC(=O)[C@H](C)NC(=O)CNC(=O)[C@H](Cc2c[nH]c3ccccc23)NC(=O)[C@H](CC(=O)O)NC(=O)[C@H](CCC(N)=O)NC(=O)[C@H](C(C)C)NC(=O)[C@H](C(C)C)NC1=O`: 12.4 µM. `CC[C@H](C)[C@H](NC(C)=O)C(=O)N[C@H]1CSSC[C@@H](C(=O)N[C@H](C(N)=O)[C@@H](C)O)NC(=O)[C@H](CCCNC(=N)N)NC(=O)[C@H](Cc2c[nH]cn2)NC(=O)[C@H](Cc2c[nH]cn2)NC(=O)CNC(=O)[C@H](Cc2c[nH]c3ccccc23)NC(=O)[C@H](CC(=O)O)NC(=O)[C@H](CCC(N)=O)NC(=O)[C@H](C(C)C)NC(=O)[C@H](C(C)C)NC1=O` returned an IC50 of 32 µM. Compared with the last compound, the IC50 is about 2.6-fold higher. In turn, `CC[C@H](C)[C@H](NC(C)=O)C(=O)N[C@H]1CSSC[C@@H](C(=O)N[C@H](C(N)=O)[C@@H](C)O)NC(=O)[C@H](CCCNC(=N)N)NC(=O)[C@H](Cc2cnc[nH]2)NC(=O)[C@H](Cc2cnc[nH]2)NC(=O)CNC(=O)[C@H](Cc2c[nH]c3ccccc23)NC(=O)[C@H](CC(=O)O)NC(=O)[C@H](CCC(N)=O)NC(=O)[C@H](Cc2c[nH]c3ccccc23)NC(=O)[C@H](C(C)C)NC1=O` displayed an IC50 of 2.2 µM. The same measure for `CC[C@H](C)[C@H](NC(C)=O)C(=O)N[C@H]1CSSC[C@@H](C(=O)N[C@H](C(N)=O)[C@@H](C)O)NC(=O)[C@H](CCCNC(=N)N)NC(=O)[C@H](Cc2cnc[nH]2)NC(=O)[C@H](Cc2cnc[nH]2)NC(=O)CNC(=O)[C@H](Cc2c[nH]c3ccccc23)NC(=O)[C@H](CC(=O)O)NC(=O)[C@H](CCC(N)=O)NC(=O)[C@H]([C@@H](C)O)NC(=O)[C@H](C(C)C)NC1=O`: 68.3 µM. The same measure for `CC[C@H](C)[C@H](NC(C)=O)C(=O)N[C@H]1CSSC[C@@H](C(=O)N[C@H](C(N)=O)[C@@H](C)O)NC(=O)[C@H](CCCNC(=N)N)NC(=O)[C@H](Cc2cnc[nH]2)NC(=O)[C@H](Cc2c[nH]c3ccccc23)NC(=O)CNC(=O)[C@H](Cc2c[nH]c3ccccc23)NC(=O)[C@H](CC(=O)O)NC(=O)[C@H](CCC(N)=O)NC(=O)[C@H](Cc2c[nH]c3ccccc23)NC(=O)[C@H](C(C)C)NC1=O`: 3.1 µM. In turn, `CC[C@H](C)[C@H](NC(C)=O)C(=O)N[C@H]1CSSC[C@@H](C(=O)N[C@H](C(N)=O)[C@@H](C)O)NC(=O)[C@H](CCCN=C(N)N)NC(=O)[C@H](Cc2c[nH]cn2)NC(=O)[C@H](Cc2c[nH]cn2)NC(=O)CNC(=O)[C@H](Cc2c[nH]c3ccccc23)NC(=O)[C@H](CC(=O)O)NC(=O)[C@H](CCC(N)=O)NC(=O)[C@H](CO)NC(=O)[C@H](C(C)C)NC1=O` came in with an IC50 of 50.9 µM. This IC50 is about 16-fold higher than that of the compound before. Next, `CC[C@H](C)[C@H](NC(C)=O)C(=O)N[C@H]1CSSC[C@@H](C(=O)N[C@H](C(N)=O)[C@@H](C)O)NC(=O)[C@H](CCCNC(=N)N)NC(=O)[C@H](Cc2cnc[nH]2)NC(=O)[C@H](Cc2cnc[nH]2)NC(=O)CNC(=O)[C@H](Cc2c[nH]c3ccccc23)NC(=O)[C@H](CC(=O)O)NC(=O)[C@H](CCC(N)=O)NC(=O)[C@H](Cc2cnc[nH]2)NC(=O)[C@H](C(C)C)NC1=O`: 10.5 µM.

(Values after ChEMBL document CHEMBL1139489, “Design and NMR characterization of active analogues of compstatin containing non-natural amino acids” (J Med Chem, 2005).)
